21 compounds from ChEMBL document CHEMBL2057076, “C-6 aryl substituted 4-quinolone-3-carboxylic acids as inhibitors of hepatitis C virus” (Bioorg Med Chem, 2012) can be followed below.

Molecules are shown by their SMILES. pEC50: −log10 of the molar value. Active and inactive are the calls of the source. The rule behind the calls is not given here.

Series [1] relates to Hepatitis C virus. Nature of the series: Antiviral activity at Hepatitis C virus genotype 1b infected in human HuH7 cells assessed as inhibition of viral replication at 10 uM after 3 days by renilla luciferase reporter gene assay. It is filed as functional, Hepacivirus hominis. The settings on record: Huh-7, 72 h.
A short description of series [2]: Cytotoxicity against human HuH7 cells assessed as cell viability at 10 uM after 3 days by CellTiter Glo assay. It is filed as cell-based, Huh-7. The settings on record: read-out: Activity. (In general: ATP-based viability assays read luminescence as a measure of living cells.)
For series [3], the system named is Hepacivirus hominis. Nature of the series: Inhibition of Hepatitis C virus NS5B delta 55 assessed as [3H][…] incorporation on a poly(A) template at 1 uM after 3 hrs by scintillation proximity assay.
In series [4] the test system is Hepatitis C virus. Nature of the series: Antiviral activity at Hepatitis C virus genotype 1b infected in human HuH7 cells assessed as inhibition of viral replication after 3 days by renilla luciferase reporter gene assay. As to conditions: Huh-7, 72 h. In kind it is functional, organism-based, Hepacivirus hominis.
Series [5] in a line: Cytotoxicity against human HuH7 cells assessed as cell viability after 3 days by CellTiter Glo assay. In kind it is cell-based, Huh-7.
A short description of series [6]: Therapeutic index, ratio of CC50 for human HuH7 cells to EC50 for Hepatitis C virus genotype 1b. In kind it is cell-based, Huh-7. As to conditions: read-out: Ratio CC50/EC50.
Series [7] has as its system Hepatitis C virus. Nature of the series: Antiviral activity at Hepatitis C virus genotype 1b infected in human HuH7 cells assessed as inhibition of viral replication at 10 uM after 3 days by quantitative RT-PCR analysis. As to conditions: Huh-7, 72 h. In kind it is functional, Hepacivirus hominis.
In series [8] the test system is Hepacivirus hominis. The series is described as follows: Inhibition of Hepatitis C virus NS5B delta 55 assessed as [3H][…] incorporation on a poly(A) template at 10 uM after 3 hrs by scintillation proximity assay. (In general: In a scintillation proximity assay essentially only radioactivity close to the scintillant gives light.)
Series [9] relates to Hepacivirus hominis. The series is described as follows: Inhibition of Hepatitis C virus NS5B delta 55 assessed as [3H][…] incorporation on a poly(A) template at 50 uM after 3 hrs by scintillation proximity assay.
The subject of series [10] is Hepatitis C virus. Nature of the series: Antiviral activity at Hepatitis C virus genotype 1b infected in human HuH7 cells assessed as inhibition of viral replication at 0.5 uM after 3 days by renilla luciferase reporter gene assay. The settings on record: Huh-7, 72 h. It is filed as functional, Hepacivirus hominis. (In a reporter assay the amount or activity of a reporter protein is the signal.)

Series [11] in a line: Cytotoxicity against human HuH7 cells assessed as cell viability at 0.5 uM after 3 days by CellTiter Glo assay. In kind it is cell-based, Huh-7. As to conditions: read-out: Activity.
For series [12], the system named is Hepatitis C virus. The series is described as follows: Antiviral activity at Hepatitis C virus genotype 1b infected in human HuH7 cells assessed as inhibition of viral replication at 0.5 uM after 3 days by quantitative RT-PCR analysis. It is filed as functional, Hepacivirus hominis. As to conditions: Huh-7, 72 h.

Broadly, the inhibition is the relative decrease from the control value, in per cent. Turning to `O=C(O)c1c[nH]c2ccc(-c3cccs3)cc2c1=O`, in the series with Hepatitis C virus [1], the inhibition at 10 µM was 0%. In addition, in series [2], the viability at 72 h, 10 µM turned out to be 100%.
Consider `N#Cc1cc(COc2cccc(C(=O)/C=C(\O)C(=O)O)c2)c(Cl)cc1Cl`, for which the inhibition entry in the series on Hepacivirus hominis [3] was “Active”.
With `O=C(O)c1cn(CCO)c2ccc(-c3ccco3)cc2c1=O`, the inhibition at 10 µM with Hepatitis C virus [1] was 20%. Besides, the viability at 72 h, 10 µM in series [2] was 100%.
Take `O=C(O)c1cnc2ccc(I)cc2c1O`: the inhibition at 10 µM with Hepatitis C virus [1] was found to be 22%. In addition, the viability at 72 h, 10 µM in series [2] was 100%.
By pEC50 is commonly meant the negative decadic logarithm of the EC50, by convention in mol/L. In general, CC50 refers to the concentration that lowers cell viability or growth by half. For the compound `O=C(O)c1cn(CCO)c2ccc(-c3cc4ccccc4o3)cc2c1=O`, the values for the inhibition at 10 µM with Hepatitis C virus [1] and in the series on Hepatitis C virus [7] were 63% and 70%, respectively. In addition, the viability at 72 h, 10 µM in series [2] is 100%. The pEC50 with Hepatitis C virus [4] was 5.24. The CC50 at 72 h in [5] came out at 34 µM. For the same compound, the selectivity ratio in series [6] came out at 5.9. Moreover, the inhibition entry with Hepacivirus hominis [8] and in the series on Hepacivirus hominis [9] was “inactive” in each case.
In the case of `COc1ccc(-c2ccc3c(c2)c(=O)c(C(=O)O)cn3CCO)cc1`, the inhibition at 10 µM in the series with Hepatitis C virus [1] was determined as 0%. Also, the viability at 72 h, 10 µM in [2] amounted to 95%.
For the compound `O=C(O)c1cn(CCO)c2cc(-c3cccs3)ccc2c1=O`, the inhibition at 10 µM in the series on Hepatitis C virus [1] worked out at 14%. Also, in series [2], the viability at 72 h, 10 µM worked out at 100%.
As for `CC(=O)c1ccc(-c2ccc3c(c2)c(=O)c(C(=O)O)cn3CCO)s1`, the inhibition at 10 µM in the series with Hepatitis C virus [1] stood at 0%. Further, the viability at 72 h, 10 µM in series [2] turned out to be 100%.
The like results for `O=C(O)c1cn(CCO)c2cc(-c3cc4ccccc4o3)ccc2c1=O` were, in that order, 14% and 94%.
As to `O=C(O)c1cn(CCCO)c2ccc(-c3cc4ccccc4o3)cc2c1=O`, the inhibition at 10 µM with Hepatitis C virus [1] came out at 44%. In addition, the viability at 72 h, 10 µM in series [2] stood at 100%. For the same compound, the pEC50 with Hepatitis C virus [4] was 4.64. The CC50 at 72 h in series [5] was 25 µM. Besides, the selectivity ratio in [6] stood at 1.1.
Turning to `NC(=O)c1ncn([C@@H]2O[C@H](CO)[C@@H](O)[C@H]2O)n1` [RIBAVIRIN], the inhibition at 10 µM in the series on Hepatitis C virus [1] is 44%. Besides, the viability at 72 h, 10 µM in [2] is 92%.
On to `CCCn1cc(C(=O)O)c(=O)c2cc(-c3cc4ccccc4o3)ccc21`, for which the inhibition at 10 µM in the series with Hepatitis C virus [1] amounted to 4%. For the same compound, the viability at 72 h, 10 µM in series [2] was 91%.
Regarding `O=C(O)c1cn(CCO)c2ccc(-c3cc4ccccc4s3)cc2c1=O`, the inhibition at 10 µM in the series with Hepatitis C virus [1] was 58%. For the same compound, in series [2], the viability at 72 h, 10 µM came to 100%. The pEC50 with Hepatitis C virus [4] is 5.23. Moreover, the CC50 at 72 h in [5] worked out at 15 µM. In [6], the selectivity ratio amounted to 2.5. For the same compound, the inhibition entry in the series on Hepacivirus hominis [8] and with Hepacivirus hominis [9] was “Active” in each case.
With `O=C(O)c1cn(CCO)c2ccc(I)cc2c1=O`, the inhibition at 10 µM in the series with Hepatitis C virus [1] worked out at 21%. Besides, in series [2], the viability at 72 h, 10 µM amounted to 100%.
The like results for `O=C(O)c1cn(Cc2ccccc2)c2ccc(I)cc2c1=O` were, in that order, 0% and 99%.
The like results for `O=C(O)c1cn(CCCO)c2cc(-c3cccs3)ccc2c1=O` were, in that order, 12% and 97%.
For `C[C@@]1(O)[C@H](O)[C@@H](CO)O[C@H]1n1cnc2c(N)ncnc21`, the inhibition at 0.5 µM was 98% in the series with Hepatitis C virus [10] and 95% in the series on Hepatitis C virus [12]. Besides, the viability at 72 h, 0.5 µM in series [11] stood at 87%.
In the case of `O=C(O)c1cn(CCO)c2ccc(-c3ccoc3)cc2c1=O`, in the series on Hepatitis C virus [1], the inhibition at 10 µM stood at 0%. The viability at 72 h, 10 µM in series [2] came out at 100%.
Regarding `O=C(O)c1cn(CCO)c2cc(-c3ccco3)ccc2c1=O`, in the series on Hepatitis C virus [1], the inhibition at 10 µM stood at 15%. For the same compound, the viability at 72 h, 10 µM in [2] was 100%.
For the compound `O=C(O)c1cn(CCO)c2ccc(-c3cccs3)cc2c1=O`, the inhibition at 10 µM in the series on Hepatitis C virus [1] came out at 40%. Also, the viability at 72 h, 10 µM in series [2] is 100%. Besides, in the series on Hepatitis C virus [4], the pEC50 was 4.44. The CC50 at 72 h in series [5] was over 50 µM. Moreover, in series [6], the selectivity ratio was over 1.4. In addition, the inhibition result with Hepacivirus hominis [8] and in the series with Hepacivirus hominis [9] was “Active” in each case.
With `O=C(O)c1c[nH]c2ccc(-c3ccco3)cc2c1=O`, the inhibition at 10 µM with Hepatitis C virus [1] is 0%. Also, in series [2], the viability at 72 h, 10 µM amounted to 100%.
